The values below come from patent publication US5053431A, “Derivatives of chrysophanol as topoisomerase II inhibitors” (Sloan-Kettering Institute For Cancer Research, priority 1990, dated 1991).

Data set [1] is described as follows: Solubility in aqueous solutions. It counts as physicochemical.
The subject of a further data set is DNA topoisomerase II. To be noted: literature; cited from earlier work.
In data set [2] the test system is [^3 H]TdR incorporation into DNA in HL-60 cells. The data set can be described thus: Inhibition of [3H]TdR incorporation into DNA in HL-60 cells (initial 30 min). As to conditions: for IC50: HL-60, initial 30 min exposure, read-out: ID50, M (HL-60 TdR into DNA (B)); for B/A: ratio of ID50 for TdR incorporation (B) to ID50 for cell growth (A), HL-60. Type of data set: cell-based, human. Here is the method:
For precursor incorporation studies, each compound at four to six concentrations (0.2% DMSO) was preincubated with HL-60 cells (2.5×10^6 /Ml) for 15 min prior to the addition of [^3 H-methyl]TdR (1 μCi, 0.15 nmol/mL) and was incubated for 30 min. […] The incorporation of radioactivity in DNA in the absence of an analogue in the presence of DMSO was used as a control.

The subject of data set [3] is human leukemia HL-60 cells. Put plainly: HL-60 cell growth inhibition (72 h). As to conditions: HL-60, 72 h, read-out: ID50, M [HL-60 cell growth (72 h)] (A). It counts as cell-based. Here is the method:
For cell growth inhibition studies, HL-60 cells […]) were grown in RPMI 1640 media at 37° C. in humidified 5% CO2 for 72 h. Viable cells were counted with the trypan blue exclusion method. The fractional inhibitions at four or five concentrations of compounds (in 0.2% DMSO) were analyzed with a median-effect plot (Chou, T.-C., et al., Adv. Enzyme Regul. 22:27 (1984)) by using a computer program. (Chou, J.; Chou, T.-C. Dose-Effect Analyses with Microcomputer. Quantitation of ID50, LD50, Synergism, Antagonism, Low-dose Risk, Receptor-Binding and Enzyme Kinetics; IBM-PC Series, Elsevier-Biosoft, Elsevier Scientific: Cambridge, U.K., (1986)). The median-effect concentration (ID50) was automatically determined for the x intercept of the median-effect plot. Cell growth in the absence of a compound and in the presence of DMSO was used as a control. DMSO (0.2%) alone inhibited cell growth 3.8±1.2% during the 72-h incubation period.

A short description of the next data set: Stability of compound. It counts as physicochemical.
For data set [4], the system named is mouse leukemia L1210 cells. The data set can be described thus: Inhibition of L1210 cell growth. It counts as cell-based. On the procedure:
Preliminary biological data for inhibiting cell growth of murine L1210 leukemic cells and human acute promyelocytic leukemia cells (HL-60) during 72 h of exposure to the compounds are given in Table IV. The potencies for inhibiting [^3 H]TdR incorporation into DNA in HL-60 cells during the initial 30-min period are also given in Table IV. It is interesting to note that 1,8-di-O-methyl derivatives are uniformly devoid of activity against L1210 leukemic cells. […] The B/A ratios allow an indirect estimation of whether or not cytotoxicities exerted by these analogues are primarily due to initial inhibition of DNA synthesis. […] Whether these analogues, like m-AMSA, ellipticine, or anthracyclines, act by inhibiting DNA topoisomerase II remains to be explored. […] Our preliminary experiments indicate that the compounds arrest cells in the S and/or G2 phases of the cell cycle (unpublished results).

The subject of data set [5] is DNA (native and thermally denatured). The data set can be described thus: Spectrophotometric study of DNA interaction. Type of data set: binding, calf thymus. On the procedure:
Some representative compounds were studied for their ability to interact with nucleic acids in solution by comparison of the electronic spectrum of drug alone with that of the drug in the presence of an excess of nucleic acid. All drugs studied have an absorption band in the visible region, separate from the absorption band of the nucleic acids, and therefore any changes in band intensity and position were indicative of drug chromophore-DNA interaction.
Absorption spectra were measured with an IBM 9410 UV-visible spectrometer interfaced to an HP 9826 computer. Small volumes of the stock drug solutions (2 mg/mL in Me2 SO) were added to 2 mL of buffer (0.01 or 0.1 M NaCl, 5 mM Hepes, pH 7) to obtain a final drug concentration of 5-15 μM, or to the solution of native or thermally denatured DNA (0.2 and 0.1 mM, respectively) in the buffer. After incubation at room temperature for 10 min, the spectra were recorded in the 300-600 nm range (increment 1 nm) and corrected by subtracting the spectrum of the blank which was measured before addition of the drug.

The next data set relates to Topo II. The data set can be described thus: Heat reversal of protein-linked DNA complex. Type of data set: biochemical, human (HL-60). As to conditions: 65 degrees C. Here is the method: This experiment concerns Topoisomerase II (Topo II)-mediated DNA cleavage activity induced by chrysophanol derivatives. 3-(bis[2-chloroethyl]amino)methyl-1,8-dihydroxy-9,10-anthraquinone (SK-31662) and 3-(2-hydroxyethylamino)methyl-1,8-dihydroxy-9,10-anthraquinone (SK-31694) have antileukemic activity with IC>es of 0.14 and 0.86 uM, respectively. SK-31662 and SK-31694 inhibit kDNA decatenation at 48 and 38 uM, respectively.

The subject of the next data set is cancer. To be noted: literature; cited from earlier work.

Values after ≈ are worked out from the molar mass of the structure shown. Like-named read-outs stand apart in the source and are kept apart here.

On to `Cc1cc(O)c2c(c1)C(=O)c1cccc(O)c1C2=O` [IIa, chrysophanol], for which, in data set [1], the “solubility in aqueous solutions” value is “low solubility in aqueous solutions”.

Regarding `COc1cc(NS(C)(=O)=O)ccc1Nc1c2ccccc2nc2ccccc12` [m-AMSA, 4'-(9-acridinylamino) methanesulfon-m-aniside], the “effect on DNA topoisomerase II reactions” value with DNA topoisomerase II is “inhibits the topoisomerization and catenation reactions of DNA topoisomerase II”.

`O=C1c2cccc(O)c2C(=O)c2c(O)cc(CNCCCl)cc21` [XIa-7, 3-[N-(2-chloroethyl)amino]methyl-1,8-dihydroxy-9,10-anthraquinone]: the IC50 in data set [2] (Homo sapiens, 0.5 h) stood at 39 µM; in data set [3] (Homo sapiens), 7.5 µM; in [4] (Mus musculus, L1210, read-out: ID50 (μM)), 7.11 µM; in [4] (Mus musculus, L1210, read-out: ID50 (μg/mL)) it was 2.37 µg/mL. Besides, the B/A in data set [2] was found to be 5.2. For the same compound, the stability result in the data set “Stability of compound” is “unstable”. In addition, the “reversal of DNA induced changes in absorption spectra by Me2SO” value in data set [5] (Me2 SO to 1:1 v/v) is on record as “could be reversed by addition of Me2 SO”.

As to `Cc1cc(O)c2c(c1)C(=O)c1cc(O)cc(O)c1C2=O` [IIb, emodin], in data set [1], the “solubility in aqueous solutions” value is on record as “low solubility in aqueous solutions”.

Regarding `COc1cccc2c1C(=O)c1c(O)c3c(c(O)c1C2=O)C[C@@](O)(C(=O)CO)C[C@@H]3O[C@H]1C[C@H](N)[C@H](O)[C@H](C)O1` [adriamycin], in the data set with DNA topoisomerase II, the “stabilization of cleavable complex between DNA topoisomerase II and DNA” value (“stabilization” for short) was “stabilize the cleavable complex between DNA topoisomerase II and DNA”.

`COc1cc([C@@H]2c3cc4c(cc3[C@@H](O[C@@H]3O[C@@H]5CO[C@@H](C)O[C@H]5[C@H](O)[C@H]3O)[C@H]3COC(=O)[C@H]23)OCO4)cc(OC)c1O` [VP-16, etoposide, reference compound]: the “reversal of protein-linked DNA by heat” value in the data set on Topo II was “reduced during 0.5 min exposure to 65 °C”. In addition, the “stabilization” value in the data set on DNA topoisomerase II is “stabilize the cleavable complex between DNA topoisomerase II and DNA”.

Consider `Cc1c2ccncc2c(C)c2c1[nH]c1ccc(O)cc12` [9-hydroxyellipticine], for which, in the data set with cancer, the anticancer activity result is on record as “potent anticancer agent”.

As to `Cc1c2ccncc2c(C)c2c1[nH]c1ccccc12` [ellipticine], the “stabilization” value in the data set with DNA topoisomerase II was “stabilize the cleavable complex between DNA topoisomerase II and DNA”.

Turning to `COc1cc(O)c2c(c1)C(=O)c1cc(CN(CCCl)CCCl)cc(O)c1C2=O` [XIb-3, 3-[N,N-bis(2-chloroethyl)amino]methyl-1,8-dihydroxy-6-methoxy-9,10-anthraquinone], the IC50 in data set [2] worked out at 12 µM; in data set [3] (0.2% DMSO) it was 0.61 µM; in data set [4] (Table I, read-out: ID50 (the source's name)), 0.023 µM. Further, the B/A in [2] is recorded as 19.7. Moreover, in data set [4] (Table I), the “ID50” value is 0.010 µg/mL (≈ 0.0236 µM). The “interaction with DNA on increase of salt concentration” value in data set [5] (Na concentration increased from 0.01 to 0.1 M) was “lost the ability to interact with DNA”.

As to `COc1cccc2c1C(=O)c1c(OC)cc(CNCCCl)cc1C2=O` [IXa-7, 3-[N-(2-chloroethyl)amino]methyl-1,8-dimethoxy-9,10-anthraquinone], the IC50 in data set [2] (Homo sapiens, 0.5 h) amounted to 19 µM; in data set [3] (Homo sapiens), 86 µM; in [4] (Mus musculus, L1210, 72 h, read-out: ID50, M (L1210 cell growth)), 26 µM. Also, the B/A in data set [2] was found to be 0.22. Also, the stability result in the data set “Stability of compound” was “unstable”.

On to `COc1cc(O)c2c(c1)C(=O)c1cc(CN(CCO)CCO)cc(O)c1C2=O` [XIb-2, 3-[N,N-bis(2-hydroxyethyl)amino]methyl-1,8-dihydroxy-6-methoxy-9,10-anthraquinone], for which the IC50 is 45 µM in data set [2] (Homo sapiens, 0.5 h); 6.6 µM in [3] (Homo sapiens, 0.2% DMSO); 13.7 µM in data set [4] (Mus musculus, L1210, Table I, read-out: ID50 (the source's name)); 5.8 µg/mL in [4] (Mus musculus, L1210, Table I, read-out: ID50 (μg/mL)); 14 µM in [4] (Mus musculus, Table IV, L1210, 72 h exposure, read-out: ID50, M (L1210 cell growth)). Besides, the B/A in data set [2] is on record as 5.2. In data set [5] (absorption spectra, native and thermally denatured DNA), the “interaction with DNA” value was “interact with both native and thermally denatured DNA but more strongly with native DNA”.
